# From article PMC12785453, “Oral Fluid Concentrations and Pharmacological Effects of Clephedrone and Methylone in Humans” (International Journal of Molecular Sciences, 2025)
# System: healthy volunteers
# Experiment: Physiological effects (SBP, DBP, HR, T), naturalistic observational clephedrone study
# Type: in vivo, humans
# Excerpt: The study evaluating the acute effects of clephedrone was designed as a non-controlled, prospective, observational, and naturalistic study. The procedures and evaluations included in this study have been described in previous studies evaluating other synthetic cathinones (mephedrone, methylone, alpha-PVP, NEP, HEXEN), phenethylamines (2C-B and 2C-E), or synthetic cannabinoids (JWH-122, JWH-210, UR-144).
# This study consisted of one experimental session in which participants (N = 8; 6 women, 2 men) selected their oral dose of clephedrone based on their drug use experience and preferences. According to their dose selection, 3 women and 1 man ingested 100 mg of clephedrone, while the remaining 3 women and 1 man opted for a higher dose of 150 mg. […] Participants were recruited by word of mouth by the harm reduction organization Energy Control in Barcelona (Associació Benestar i Desenvolupament, ABD).
# Participants of the naturalistic clephedrone study were summoned at 15:00 h at the private club where sessions were carried out. The club remained closed to the public until the end of the session, approximately at 21:00 h. As a naturalistic study, participants were left free to talk, read, play games, or listen to music in the time between study evaluations. To avoid possible influences between participants, they were asked to refrain from talking about the effects of the self-administered substance. The experimental sessions of the controlled pilot trial were carried out at the Clinical Research Unit (UPIC) of the Germans Trias i Pujol hospital, where participants were summoned at 7:45 a.m. after fasting overnight and remained there for approximately 11 h.
# In the naturalistic clephedrone study, non-invasive systolic blood pressure (SBP), diastolic blood pressure (DBP), and heart rate (HR) were assessed, while subjects remained seated with an automatic Omron monitor (Omron, Healthcare, Kyoto, Japan) at baseline, 0.50, 1, 1.5, 2, 3, 4 and 5 h (h) after self-administration. Forehead cutaneous temperature was determined at the same time points using a cutaneous infrared thermometer.
# For statistical analysis, values of physiological (SBP, DBP, HR, and T) and subjective effects (VAS, ARCI, and VESSPA-SSE) were baseline–adjusted. Maximum effects (Emax) and the time needed to reach maximum effects (Tmax) were determined, and the area under the curve up to 5 h (AUC0–5h) for clephedrone and up to 6 h (AUC0–6h) for methylone was calculated using the trapezoidal rule. Emax and AUC values are presented as mean ± standard deviation, whereas Tmax is presented in median (range).
# To find possible significant changes through the time course compared to baseline, a Dunnett multiple comparison test was carried out to compare each time point with baseline in both drug conditions. For clephedrone the comparisons were 0–0.5 h, 0–1 h, 0–1.5 h, 0–2 h, 0–3 h, 0–4 h and 0–5 h, and for methylone this analysis included 0–0.25 h, 0–0.5 h, 0–0.75 h, 0–1 h, 0–1.5 h, 0–2 h, 0–3 h, 0–4 h and 0–6 h. Given their different study designs, no comparative analysis between the time courses of both synthetic cathinones was conducted.
# [1] = 100 or 150 mg oral, n=8, listed as clephedrone
# [2] = AUC0–5h, 100 or 150 mg oral, n=8
smiles,measurement,setting,value
"CNC(C)C(=O)c1ccc(Cl)cc1 (stereo not drawn) [Clephedrone, 4-chloromethcathinone]",Onset of cardiovascular effects after self-administration,100 or 150 mg oral,2 h
same,"Tmax of maximum effects on SBP, DBP and HR",100 or 150 mg oral,2.5 to 3.0 h
same,DBP Emax,"100 or 150 mg oral, n=8",13.63 ± 11.74 mmHg
same,HR Emax,"100 or 150 mg oral, n=8",17.19 ± 25.17 bpm
same,SBP Emax,"100 or 150 mg oral, n=8",16.81 ± 13.11 mmHg
same,DBP Emax,[1],13.6 mmHg
same,HR Emax,[1],17.19 bpm
same,HR Tmax,[1],3 h
same,SBP Emax,[1],16.81 mmHg
same,DBP AUC0-5/6 h,[2],32.64 ± 22.06 mmHg·h
same,HR AUC0-5/6 h,[2],37.20 ± 40.72 bpm·h
same,SBP AUC0-5/6 h,[2],41.77 ± 13.86 mmHg·h
same,T AUC0-5/6 h,"AUC0–5h, forehead cutaneous temperature, 100 or 150 mg oral, n=8",1.25 ± 1.05 °C·h
same,"Tolerability, serious adverse events",all administered doses (100 or 150 mg oral),well tolerated
same,T Emax,"forehead cutaneous temperature, 100 or 150 mg oral, n=8",0.63 ± 0.35 °C
